Measurements as given in US20230218618A1, “ADMINISTRATION OF SUMO-ACTIVATING ENZYME INHIBITOR AND ANTI-CD38 ANTIBODIES” (MILLENNIUM PHARMACEUTICALS, INC., priority 2020, published 2023).

Columns and labels:
[1] = tested on: MOLP-8 human multiple myeloma cell line; test: Study 4: MOLP-8 xenograft human multiple myeloma subcutaneous tumor model; format: in vivo, SCID mice; conditions: for Tumor growth compared to vehicle (pairwise comparison): I-263a 7.5 mg/kg BIW 2 weeks (p < 0.05 as printed), daratumumab 2.5, 7.5 or 20 mg/kg (p < 0.01; p < 0.01; p < 0.001), I-263a with daratumumab 2.5, 7.5 or 20 mg/kg (p < 0.001); for GRI%: vs vehicle
Procedure: (§1) Low tumor volumes can cause problems with the data analysis, so all measurements below 25 cubic mm (including 0 values) were excluded from the analysis. After this exclusion step, the tumor volume was assumed to follow an exponential growth model. More specifically, for a given animal and treatment group,
(§2) Pairwise comparisons were performed, where the mean growth rates were compared for various pairs of treatment conditions. The results were summarized using the growth rate inhibition (GRI). Suppose µT and µC are the mean tumor growth rates for the treatment and reference groups, respectively. Define
(§3) Here, µAB, µA, µB, and µControl are the mean growth rates for the combination, drug A, drug B, and control groups, respectively. As before, µv is the mean tumor growth rate for the vehicle group, which in most cases is the same as the control group. The standard error of the synergy score was calculated as the square root of the sum of squared standard errors across the four groups. The degrees of freedom were estimated using the Welch-Satterthwaite equation. A hypothesis test was performed to determine if the synergy score differed from 0. P-values were calculated by dividing the synergy score by its standard error and tested against a t-distribution (two-tailed) with the above-calculated degrees of freedom. A P value of less than 0.05 is statistically significant.
(§4) The combination results can be interpreted as follows. Statistically significant negative synergy scores indicate a synergistic combination (“Syn.”). Statistically significant positive synergy scores indicate a sub-additive combination (“Sub-add.”) when the combination performs better (i.e. has a lower growth rate) than the best performing single agent. Statistically significant positive synergy scores indicate an antagonistic combination (“Antag.”) when the combination performs worse than the best performing single agent. Scores that are not statistically significant should be considered additive (“Add.”).
MOLP-8 is a human multiple myeloma cell line. A MOLP-8 human xenograft tumor model was generated by subcutaneous inoculation with 4.0 × 10^6 MOLP-8 cells (cell suspension) in 14 weeks old female SCID mice (Vital River Laboratory Animal Technology Co., Ltd, Beijing, China) in the flank. When the mean tumor volume reached approximately 170 mm^3, the animals were randomized into one vehicle control and seven treatment groups (n=8/group). Mice were then dosed with 20% HPβCD or Compound I-263a or daratumumab over a 14-day period. Tumor growth and body weight were measured twice per week during the treatment and post-treatment periods, and mice were humanely euthanized once they had reached their humane endpoint.
A 0.75 mg/mL stock solution of I-263a was formulated weekly in 20% HPβCD and administered IV based on exact animal body weight on each day of treatment, using a dosing volume of 10 mL/kg body weight. Final dose I-263a received was 7.5 mg/kg. I-263a was administered on a BIW schedule for 2 weeks (Days 1, 4, 8, and 11). Daratumumab (anti-CD38 antibody) (Janssen Biotech, Inc., Horsham, PA) was stored at 4° C. according to manufacturer’s instructions. Final dose daratumumab received was 2.5 mg/kg, 7.5 mg/kg, and 20 mg/kg based on exact animal body weight on each day of treatment, using a dosing volume of 10 mL/kg body weight. Daratumumab was administered intraperitoneally (IP) using a 0.1 mL dosing volume, on a BIW schedule for 2 weeks (Days 1, 4, 8, and 11).
(§5) Tumors were measured twice weekly using Vernier calipers. Tumor volumes were calculated using standard equation: V = W^2 × L/2, where V = volume, W = width, and L = length for the tumor. When mean tumor volumes reached approximately 170 mm^3, mice were randomized into control and treatment groups. Mice were randomized into 8 groups (n=8/group) and dosed with vehicle (20% HPβCD), I-263a, daratumumab, or the combination of I-263a plus daratumumab at doses and schedules as described above. […]

[2] = tested on: NCI-H929 human multiple myeloma cell line; test: Study 5: NCI-H929 xenograft human multiple myeloma subcutaneous tumor model; format: in vivo, SCID mice; conditions: for Tumor growth compared to vehicle (pairwise comparison): I-263a 7.5 mg/kg BIW 2 weeks (p > 0.05), daratumumab 2.5, 7.5 or 20 mg/kg BIW 2 weeks alone or combined with I-263a (p < 0.001); for GRI%: vs vehicle
Procedure: as §1, §2, §3, §4
NCI-H929 is a human multiple myeloma cell line. A NCI-H929 human xenograft tumor model was generated by subcutaneous inoculation with 1.0 × 10^7 NCI-H929 cells (cell suspension) in 7 weeks old female SCID mice (Vital River Laboratory Animal Technology Co., Ltd, Beijing, China) in the flank. When the mean tumor volume reached approximately 180 mm^3, the animals were randomized into one vehicle control and seven treatment groups (n=10/group). Mice were then dosed with 20% HPβCD or Compound I-263a or daratumumab over a 14-day period. Tumor growth and body weight were measured twice per week during the treatment and post-treatment periods, and mice were humanely euthanized once they had reached their humane endpoint.
A 1.5 mg/mL stock solution of I-263a was formulated weekly in 20% HPβCD and administered IV based on exact animal body weight on each day of treatment, using a dosing volume of 5 mL/kg body weight. Final dose I-263a received was 7.5 mg/kg. I-263a was administered on a BIW schedule for 2 weeks (Days 0, 3, 7, and 10). Daratumumab (anti-CD38 antibody) (Janssen Biotech, Inc., Horsham, PA) was stored at 4° C. according to manufacturer’s instructions. Final dose daratumumab received was 2.5 mg/kg, 7.5 mg/kg, and 20 mg/kg based on average body weight. Daratumumab was administered intraperitoneally (IP) using a 0.1 mL dosing volume, on a BIW schedule for 2 weeks (Days 0, 3, 7, and 10).
as §5, with “180” for “170”, “above. Tumor size and body weight were measured twice a week for the duration of the study.” for “above.”

| Compound | Tumor growth compared to vehicle (pairwise comparison) [1] | Tumor volume on Day 14 (± SEM) ([1]; I-263a 7.5 mg/kg BIW IV) | GRI% ([1]; I-263a 7.5 mg/kg BIW IV) | Tumor growth compared to vehicle (pairwise comparison) [2] | Tumor volume on Day 14 (± SEM) ([2]; I-263a 7.5 mg/kg BIW IV) | GRI% ([2]; I-263a 7.5 mg/kg BIW IV) | Tumor volume on Day 14 (± SEM) ([1]; Daratumumab 2.5 mg/kg BIW IP) | GRI% ([1]; Daratumumab 2.5 mg/kg BIW IP) | Tumor volume on Day 14 (± SEM) ([1]; Daratumumab 7.5 mg/kg BIW IP) | GRI% ([1]; Daratumumab 7.5 mg/kg BIW IP) | Tumor volume on Day 14 (± SEM) ([1]; Daratumumab 20 mg/kg BIW IP) | GRI% ([1]; Daratumumab 20 mg/kg BIW IP) | Tumor volume on Day 14 (± SEM) ([2]; Daratumumab 2.5 mg/kg BIW IP) | GRI% ([2]; Daratumumab 2.5 mg/kg BIW IP) | Tumor volume on Day 14 (± SEM) ([2]; Daratumumab 7.5 mg/kg BIW IP) | GRI% ([2]; Daratumumab 7.5 mg/kg BIW IP) | Tumor volume on Day 14 (± SEM) ([2]; Daratumumab 20 mg/kg BIW IP) | GRI% ([2]; Daratumumab 20 mg/kg BIW IP) |
| --- | --- | --- | --- | --- | --- | --- | --- | --- | --- | --- | --- | --- | --- | --- | --- | --- | --- | --- |
| Cc1sc(C(=O)c2cncnc2N[C@@H]2C[C@H](COS(N)(=O)=O)[C@@H](O)C2)cc1[C@@H]1NCCc2ccc(Cl)cc21 [Compound I-263a, [(1R,2S,4R)-4-{[5-({4-[(1R)-7-chloro-1,2,3,4-tetrahydroisoquinolin-1-yl]-5-methyl-2-thienyl}carbonyl)pyrimidin-4-yl]amino}-2-hydroxycyclopentyl]methyl sulfamate] | not significantly different | 2500.8 ± 106.6 | 3% | not significantly different from vehicle | 1763.8 ± 187.6 | 6% | – | – | – | – | – | – | – | – | – | – | – | – |
| Daratumumab: immunoglobulin G1 kappa (IgG1κ) human monoclonal antibody against CD38 antigen | significantly inhibited growth curves | – | – | significantly inhibited tumor growth curves | – | – | 2047.4 ± 83.4 | 11% | 1653 ± 158.5 | 20% | 1250.6 ± 108.6 | 28% | 999.5 ± 187.7 | 37% | 838.3 ± 142.8 | 45% | 656.2 ± 127.2 | 54% |
